Our source for the IC50 and concentration values is patent US20250346613A1, “BORIC ACID PROTEASOME INHIBITOR AND USE THEREOF” (ARTIVILA BIOPHARMA, priority 2022, published 2025).

A value given as a limit tells only on which side of the number the result lay.

For one data set, the system named is MM.1S cell strain. Kind of data set: Inhibitory activity of cell strain (CellTiter-Glo). In kind it is cell-based. As to conditions: Homo sapiens, MM1.S, 72 h incubation. In a few lines: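 Cells seeded at 1×10^5 per well in RPMI1640 complete medium for 24 h, then treated 72 h at 37 °C, 5% CO2 with 3-fold dilutions, final 5×10^−7 M down to 2.29×10^−10 M. CellTiter-Glo luminescence; inhibition calculated against DMSO-only cells and medium-only blanks.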
(In general: In ATP-based viability assays light output follows the ATP content of the culture.)

Data set [1] in a line: Blood concentration measurement of orally-administrated mice. The format is in vivo, C57BL/6JNifdc mice. As to conditions: C57BL/6JNifdc, mouse, plasma, oral, 30 mg/kg; for concentration at 0.5 h: read-out: Average blood compound concentration (μM) 0.5 h; for concentration at 1 h: read-out: Average blood compound concentration (μM) 1.0 h; for concentration at 1.5 h: read-out: Average blood compound concentration (μM) 1.5 h; for concentration at 2 h: read-out: Average blood compound concentration (μM) 2.0 h. The method, then:
The C57BL/6JNifdc mice used in this experiment were provided by Zhejiang Vital River Laboratory Animal Technology Co., Ltd. The compounds were dissolved in DMSO/Solutol/Saline (v/v/v=10/10/80) as a stock solution (3 mg/mL). The stock solution was administrated orally to 6 C57BL/6JNifdc mice at a dose of 30 mg/kg. Blood was collected from the orbital venous plexus at 0.5 h, 1 h, 1.5 h, and 2 h after oral administration.
Approximately 200 μL of blood samples were collected into EDTAK2 Blood Collection tubes and then immediately centrifuged at 10,000 rpm for 5 min. 66 μL of plasma supernatant was added with 198 μL of acetonitrile (Energy), the resulting mixture was shaken on a vortex for 5 min, and then immediately centrifuged at 13000 rpm for 8 min. 200 μL of supernatant was taken for blood compound concentration measurement.
The compound was accurately weighed and dissolved in acetonitrile to a concentration of 100 μg/mL. 50 μL of compound was pipetted and added to 4.95 mL of acetonitrile/water (v/v=3/1) solution to obtain 1000 ng/mL mother liquid. 650 μL of the mother liquid was taken and sequentially diluted with a solution of acetonitrile/water (v/v=3/1) in a 2-fold gradient to obtain standard samples with various concentrations of 500 ng/mL, 250 ng/mL, 125 ng/mL, 62.5 ng/mL, and 31.25 ng/mL.
Standard solutions with concentrations of 1000 ng/mL, 500 ng/mL, 250 ng/mL, 125 ng/mL, 62.5 ng/mL, and 31.25 ng/mL were measured by using LC-MS (LC-MS 2020+LC-2030 Plus, Shimadzu) SIM mode to obtain a calibration curve. The treated blood samples were measured by this method and then subjected to quantitative analysis by using the calibration curve to obtain compound concentration data of each treated blood sample.
The data were exported and the average blood compound concentration at each sampling time was calculated.
Blood compound concentration=compound concentration in treated blood sample×4/molecular weight of the compound. The average blood compound concentration is the average of the compound concentrations in the blood at each sampling time.

One may read the IC50 as the concentration that inhibits the measured activity by half. For `Cc1ccc(C[C@H](NC(=O)C(C)C(=O)NCc2ccc(Cl)cc2Cl)B(O)O)cc1` (stereo partly drawn) [Example 59, ((1R)-1-(3-((2,4-dichlorobenzyl)amino)-2-methyl-3-oxopropionamido)-2-(p-tolyl)ethyl)boric acid], in the data set on MM.1S cell strain, the IC50 is at most 50 nM. Further, in data set [1], the concentration at 0.5 h was 23 µM, the concentration at 1 h was found to be 20 µM, the concentration at 1.5 h amounted to 22 µM and the concentration at 2 h turned out to be 16 µM.

For the compound `COc1cccc(CCNC(=O)C(C)C(=O)N[C@@H](Cc2coc3ccccc23)B(O)O)c1` (stereo partly drawn) [Example 63, ((1R)-2-(benzofuran-3-yl)-1-(3-((3-methoxyphenylethyl)amino)-2-methyl-3-oxopropionamido)ethyl)boric acid], the IC50 in the data set on MM.1S cell strain was at most 50 nM. In addition, in data set [1], the concentration at 0.5 h was 23 µM, the concentration at 1 h was 24 µM, the concentration at 1.5 h turned out to be 15 µM and the concentration at 2 h came out at 16 µM.
